One data set addresses T1, CYP11B1 (Homo sapiens, UniProt P15538).
T1 sequence (P15538 whole entry): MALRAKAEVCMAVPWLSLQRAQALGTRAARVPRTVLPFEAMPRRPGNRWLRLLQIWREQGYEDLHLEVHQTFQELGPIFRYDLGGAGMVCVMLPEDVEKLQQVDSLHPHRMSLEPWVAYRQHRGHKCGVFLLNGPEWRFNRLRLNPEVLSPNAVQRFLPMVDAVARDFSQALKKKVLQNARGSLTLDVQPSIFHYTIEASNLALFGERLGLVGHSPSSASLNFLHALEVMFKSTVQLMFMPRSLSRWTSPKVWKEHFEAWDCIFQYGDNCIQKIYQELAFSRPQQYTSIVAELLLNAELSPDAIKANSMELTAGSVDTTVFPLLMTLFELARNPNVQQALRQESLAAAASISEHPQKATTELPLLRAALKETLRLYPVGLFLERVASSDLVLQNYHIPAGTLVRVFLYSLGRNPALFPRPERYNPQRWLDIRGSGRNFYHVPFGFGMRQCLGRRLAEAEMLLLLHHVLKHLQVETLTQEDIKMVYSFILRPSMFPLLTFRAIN
Description: (§1) Inhibition of CYP11B1 (unknown origin). Format: ADME.

Data set [1] in a line: Metabolic stability in human liver microsomes assessed as half life measured upto 60 mins by LC/MS-MS analysis. Format: ADME, Microsome.
In data set [2] the target is T2, Cytochrome P450 11B2, mitochondrial (Homo sapiens, UniProt P19099).
T2 sequence (P19099 whole entry): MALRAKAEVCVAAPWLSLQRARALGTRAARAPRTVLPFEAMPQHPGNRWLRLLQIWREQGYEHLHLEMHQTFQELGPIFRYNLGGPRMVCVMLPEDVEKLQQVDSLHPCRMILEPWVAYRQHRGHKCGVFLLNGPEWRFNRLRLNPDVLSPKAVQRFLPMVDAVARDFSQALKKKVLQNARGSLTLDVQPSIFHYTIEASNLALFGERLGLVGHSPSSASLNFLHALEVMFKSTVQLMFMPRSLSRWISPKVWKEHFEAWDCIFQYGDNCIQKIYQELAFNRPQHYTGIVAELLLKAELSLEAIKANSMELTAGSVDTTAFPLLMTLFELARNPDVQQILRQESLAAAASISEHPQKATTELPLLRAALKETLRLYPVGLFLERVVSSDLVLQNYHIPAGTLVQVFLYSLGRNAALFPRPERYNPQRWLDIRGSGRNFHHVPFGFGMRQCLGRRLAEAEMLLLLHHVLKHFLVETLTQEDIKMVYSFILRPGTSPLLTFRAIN
Description: Inhibition of CYP11B2 (unknown origin). Format: ADME.

The target of data set [3] is T3, Cytochrome P450 11B1, mitochondrial (Homo sapiens, UniProt P15538).
T3 sequence (P15538 whole entry): T1 sequence (P15538 whole entry)
Described as §1. It counts as ADME.

Data set [4] addresses T2, Cytochrome P450 11B2, mitochondrial. Description: Inhibition of human CYP11B2 stably expressed in G-402 cells. Format: ADME, cell-based.
For data set [5] the target is unchanged. Description: Inhibition of human CYP11B2 expressed in human NCI-H295 cells incubated for 48 hrs by radioimmuno assay. Format: ADME, cell-based.

Results on 23 compounds are retold here after ChEMBL document CHEMBL5550167, “Emerging trends in small molecule inhibitors targeting aldosterone synthase: A new paradigm in cardiovascular disease treatment” (Eur J Med Chem, 2024).

The structures appear in SMILES notation.

The term IC50 denotes the point on the concentration scale where inhibition reaches its midpoint. Higher therefore signals a need for much substance. For the compound `COc1cc2c(cc1-c1cccnc1)CCC(=O)N2C`, on CYP11B1, half-maximal inhibition (IC50) required 1100 nM. One may read the half-life as how long it takes for the measured level to halve. In the case of `Cc1nnc2n1-c1ccc(-c3cncc([C@](C)(O)C(F)(F)F)c3)cc1CC2`, in data set [1], the half-life was 2 h. Moreover, the midpoint of inhibition in data set [2], the IC50, lay at 64 nM. As for `Cc1c(-c2cccnc2)[nH]c2ccccc12`, it took 81 nM to reach half-maximal inhibition in data set [3] (IC50).

`Cn1c(-c2cccnc2)c(C#N)c2ccc(Cl)cc21` showed an IC50 in data set [3] of 107 nM. On to `Cn1cc(C(=O)N2CC(Oc3cncc(N4C(=O)c5ccc(Cl)cc5C4(C)C)c3)C2)cn1`, for which, in data set [4], the IC50 was determined as 0.5 nM. For `COc1ccc2c(c1)CC(C)C(c1cncc3ccccc13)=C2` (stereo unspecified), the IC50 in data set [5] came out at 0.5 nM. `Cn1nccc1-c1cncc(N2CCc3cc(Cl)ccc3C2=O)c1Cl` showed an IC50 in data set [4] of 6.2 nM. In other words, the single-digit nanomolar range. In turn, `Cc1c(F)cncc1C1COc2c(cccc2C(N)=O)O1` (stereo unspecified) showed an IC50 against CYP11B1 of 2600 nM.

`CC1(c2ccccc2)CCc2cncc(-c3ccc(C(F)(F)F)cc3F)c21` (stereo unspecified): the IC50 in data set [2] was 33 nM; in data set [3], 738 nM.

With `N#Cc1cccc2c1OCC(c1cncc(C(O)C3CCOCC3)c1)O2` (stereo unspecified), the half-inhibitory concentration (IC50) in data set [2] is under 10 nM.

In data set [2], `CC(C)CCC1(c2ccccc2Cl)C(=O)N(Cc2ccc(F)cc2)Cc2cncn21` (stereo unspecified) returned a half-inhibitory concentration (IC50) of 4 nM. The same measure, in the same setting: the same measure for `N#Cc1ccc(-c2cncc3c2CCCC3)cc1`: 40 nM.

In data set [2], `CN(C)C(=O)CC1CCCc2c(-c3ccc(C(F)(F)F)cc3F)cncc21` (stereo unspecified) yielded an IC50 of 32 nM. The same measure, in the same setting: in the case of `N#Cc1cccc2c1OCC(c1cncc(CN3CCOC3=O)c1)O2` (stereo unspecified) it was under 10 nM; in that of `N#Cc1cccc2c1OCC(c1cncc(CN3CCCCS3(=O)=O)c1)O2` (stereo unspecified), under 10 nM.

`CCn1cc(C(=O)N2CC3(C2)CN(c2cncc(N4C(=O)c5ccc(Cl)cc5C4(C)C)c2)C3)cn1` displayed a 50% inhibitory concentration (IC50) in data set [4] of 0.23 nM.

Take `CCCC1(c2ccc(C#N)cc2OC)C(=O)N(Cc2ccccc2)Cc2cncn21` (stereo unspecified): in data set [2], the IC50 was 4 nM.

`CNC(=O)Cn1cc(NC(=O)CN2CCN(c3cncc(-c4ccc(Cl)cc4)c3)CC2)cn1`: in data set [2], the IC50 came to 3 nM. As to `CC1(C)C(=O)Nc2cccc(Cl)c2C1n1cncc1CO` (stereo unspecified), the concentration for half-maximal inhibition (IC50) in data set [2] came to 7 nM. This IC50 is about 2.3-fold higher than that of the compound before. Compound `CS(=O)(=O)COc1cncc(C2COc3c(C#N)cccc3O2)c1` (stereo unspecified) yielded an IC50 in data set [2] of under 10 nM. In data set [2], `CC1(C)CN(Cc2ccccc2)c2ccccc2C1N1C=NCC1CO` (stereo unspecified) displayed an IC50 of 6 nM. Take `O=C(CC1CCc2c(-c3ccc(C(F)(F)F)cc3F)cncc21)N1CCCCC1` (stereo unspecified): the concentration for half-maximal inhibition (IC50) in data set [2] is 2 nM; in data set [3] it was 10 nM. `CC(C)NC(=O)CN1CCN(c2cncc(-c3ccc4c(c3)CCO4)n2)C1` gave an IC50 in data set [2] of 2.2 nM.
